The supplement of paper PMC10307832

Legend:
Experiment in all cases: relative viability (nuclei count vs DMSO), 5 days (fraction); higher = more cells survive
IU1-47 + Dasatinib = compound: CC1=CC(=C(N1C2=CC=C(C=C2)Cl)C)C(=O)CN3CCCCC3 [IU1-47] + Cc1nc(Nc2ncc(C(=O)Nc3c(C)cccc3Cl)s2)cc(N2CCN(CCO)CC2)n1 [Dasatinib] (partner 0.075 µM)
Outline: (§1)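 For relative viability, nuclei counts in treated wells were divided by those in vehicle wells. Lung cancer cell lines had been pin-tool dosed in 1536-well plates the day after seeding and cultured for 5 days, then fixed and stained in one step (final 0.05% Triton X-100, 1% formaldehyde, 1 ug/ml Hoechst) and imaged at 4×. Doses were one drug alone or a fixed anchor-drug dose plus five library-drug doses (not always all listed) in √10 steps, and values are duplicate-plate medians.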

IU1-47 + Alpelisib = compound: CC1=CC(=C(N1C2=CC=C(C=C2)Cl)C)C(=O)CN3CCCCC3 [IU1-47] + Cc1nc(NC(=O)N2CCC[C@H]2C(N)=O)sc1-c1ccnc(C(C)(C)C(F)(F)F)c1 [Alpelisib] (partner 2 µM)
Outline: as §1

FG-4592 + Phenformin = compound: Cc1nc(C(=O)NCC(=O)O)c(O)c2ccc(Oc3ccccc3)cc12 [FG-4592] + N=C(N)NC(=N)NCCc1ccccc1 [Phenformin] (partner 250 µM)
Outline: as §1

FG-4592 + Foretinib = compound: Cc1nc(C(=O)NCC(=O)O)c(O)c2ccc(Oc3ccccc3)cc12 [FG-4592] + COc1cc2c(Oc3ccc(NC(=O)C4(C(=O)Nc5ccc(F)cc5)CC4)cc3F)ccnc2cc1OCCCN1CCOCC1 [Foretinib] (partner 0.25 µM)
Outline: as §1

201T
relative viability (IU1-47 + Dasatinib; first compound 0.08 µM): 0.542
relative viability (IU1-47 + Dasatinib; first compound 0.253 µM): 0.604
relative viability (IU1-47 + Dasatinib; first compound 0.8 µM): 0.622
relative viability (IU1-47 + Dasatinib; first compound 8 µM): 0.587
relative viability (IU1-47 + Alpelisib; first compound 0.08 µM): 1.08
relative viability (IU1-47 + Alpelisib; first compound 0.253 µM): 1.04
relative viability (IU1-47 + Alpelisib; first compound 0.8 µM): 0.938
relative viability (IU1-47 + Alpelisib; first compound 8 µM): 1.04
relative viability (FG-4592 + Phenformin; first compound 0.08 µM): 0.399
relative viability (FG-4592 + Phenformin; first compound 0.253 µM): 0.408
relative viability (FG-4592 + Phenformin; first compound 0.8 µM): 0.423
relative viability (FG-4592 + Phenformin; first compound 2.53 µM): 0.437
relative viability (FG-4592 + Phenformin; first compound 8 µM): 0.493
relative viability (FG-4592 + Foretinib; first compound 0.08 µM): 1.11
relative viability (FG-4592 + Foretinib; first compound 0.253 µM): 1.04
relative viability (FG-4592 + Foretinib; first compound 2.53 µM): 1.15
relative viability (FG-4592 + Foretinib; first compound 8 µM): 1.07

A549
relative viability (IU1-47 + Alpelisib; first compound 0.08 µM): 0.795
relative viability (IU1-47 + Alpelisib; first compound 0.253 µM): 0.767
relative viability (IU1-47 + Alpelisib; first compound 0.8 µM): 0.751
relative viability (IU1-47 + Alpelisib; first compound 2.53 µM): 0.936
relative viability (IU1-47 + Alpelisib; first compound 8 µM): 0.642
relative viability (FG-4592 + Phenformin; first compound 0.08 µM): 0.166
relative viability (FG-4592 + Phenformin; first compound 0.253 µM): 0.154
relative viability (FG-4592 + Phenformin; first compound 0.8 µM): 0.159
relative viability (FG-4592 + Phenformin; first compound 2.53 µM): 0.191
relative viability (FG-4592 + Phenformin; first compound 8 µM): 0.216
relative viability (FG-4592 + Foretinib; first compound 0.08 µM): 1.01
relative viability (FG-4592 + Foretinib; first compound 0.253 µM): 0.898
relative viability (FG-4592 + Foretinib; first compound 0.8 µM): 1.03
relative viability (FG-4592 + Foretinib; first compound 2.53 µM): 0.991
relative viability (FG-4592 + Foretinib; first compound 8 µM): 0.866

A-427
relative viability (IU1-47 + Dasatinib; first compound 0.08 µM): 0.851
relative viability (IU1-47 + Dasatinib; first compound 0.253 µM): 0.656
relative viability (IU1-47 + Dasatinib; first compound 0.8 µM): 0.728
relative viability (IU1-47 + Dasatinib; first compound 8 µM): 0.642
relative viability (IU1-47 + Alpelisib; first compound 0.08 µM): 1.09
relative viability (IU1-47 + Alpelisib; first compound 0.253 µM): 1.08
relative viability (IU1-47 + Alpelisib; first compound 0.8 µM): 1.14
relative viability (IU1-47 + Alpelisib; first compound 8 µM): 1.04
relative viability (FG-4592 + Phenformin; first compound 0.08 µM): 0.27
relative viability (FG-4592 + Phenformin; first compound 0.253 µM): 0.313
relative viability (FG-4592 + Phenformin; first compound 0.8 µM): 0.341
relative viability (FG-4592 + Phenformin; first compound 2.53 µM): 0.335
relative viability (FG-4592 + Phenformin; first compound 8 µM): 0.414
relative viability (FG-4592 + Foretinib; first compound 0.08 µM): 0.98
relative viability (FG-4592 + Foretinib; first compound 0.253 µM): 1.11
relative viability (FG-4592 + Foretinib; first compound 0.8 µM): 1.03
relative viability (FG-4592 + Foretinib; first compound 2.53 µM): 0.98
relative viability (FG-4592 + Foretinib; first compound 8 µM): 1.18

ABC-1
relative viability (IU1-47 + Dasatinib; first compound 0.08 µM): 0.696
relative viability (IU1-47 + Dasatinib; first compound 0.253 µM): 0.603
relative viability (IU1-47 + Dasatinib; first compound 0.8 µM): 0.615
relative viability (IU1-47 + Dasatinib; first compound 8 µM): 0.542
relative viability (IU1-47 + Alpelisib; first compound 0.08 µM): 1.12
relative viability (IU1-47 + Alpelisib; first compound 0.253 µM): 1.3
relative viability (IU1-47 + Alpelisib; first compound 0.8 µM): 0.977
relative viability (IU1-47 + Alpelisib; first compound 8 µM): 1.1
relative viability (FG-4592 + Phenformin; first compound 0.08 µM): 0.232
relative viability (FG-4592 + Phenformin; first compound 0.253 µM): 0.201
relative viability (FG-4592 + Phenformin; first compound 0.8 µM): 0.211
relative viability (FG-4592 + Phenformin; first compound 2.53 µM): 0.258
relative viability (FG-4592 + Phenformin; first compound 8 µM): 0.254
relative viability (FG-4592 + Foretinib; first compound 0.08 µM): 0.938
relative viability (FG-4592 + Foretinib; first compound 0.253 µM): 0.929
relative viability (FG-4592 + Foretinib; first compound 0.8 µM): 1.03
relative viability (FG-4592 + Foretinib; first compound 2.53 µM): 1.03
relative viability (FG-4592 + Foretinib; first compound 8 µM): 0.76

BEN
relative viability (IU1-47 + Dasatinib; first compound 0.08 µM): 0.296
relative viability (IU1-47 + Dasatinib; first compound 0.253 µM): 0.358
relative viability (IU1-47 + Dasatinib; first compound 0.8 µM): 0.394
relative viability (IU1-47 + Dasatinib; first compound 8 µM): 0.304
relative viability (IU1-47 + Alpelisib; first compound 0.08 µM): 1.06
relative viability (IU1-47 + Alpelisib; first compound 0.253 µM): 1.13
relative viability (IU1-47 + Alpelisib; first compound 0.8 µM): 1.24
relative viability (IU1-47 + Alpelisib; first compound 2.53 µM): 0.973
relative viability (IU1-47 + Alpelisib; first compound 8 µM): 0.834
relative viability (FG-4592 + Phenformin; first compound 0.08 µM): 0.234
relative viability (FG-4592 + Phenformin; first compound 0.253 µM): 0.231
relative viability (FG-4592 + Phenformin; first compound 0.8 µM): 0.268
relative viability (FG-4592 + Phenformin; first compound 2.53 µM): 0.288
relative viability (FG-4592 + Phenformin; first compound 8 µM): 0.306
relative viability (FG-4592 + Foretinib; first compound 0.08 µM): 0.522
relative viability (FG-4592 + Foretinib; first compound 0.253 µM): 0.597
relative viability (FG-4592 + Foretinib; first compound 0.8 µM): 0.607
relative viability (FG-4592 + Foretinib; first compound 2.53 µM): 0.764
relative viability (FG-4592 + Foretinib; first compound 8 µM): 0.464
